Results taken from patent US20100261711A1, “SELECTIVE ANTICONVULSANT AGENTS AND THEIR USES” (WiSys Technology Foundation, priority 2009, published 2010).
Where “and” joins values, the source holds several entries; their conditions need not be identical. Equal values may be shown once.

What was measured:
[1] = biological target: T1, GABAA/α2 (α2β3γ2 GABAA receptors) (Homo sapiens, UniProt P18507+P47869); test: Competitive binding assay, [3H]flunitrazepam; conditions: Binding Affinity at GABAA/α2, αxβ3γ2, [3H]flunitrazepam competition
T1 construct: expressed in transfected cells
Procedure: (§1) The GABAA subunit selectivity of several compounds prepared as described above were determined using competitive binding assays. […] Membranes were harvested with a Brandel cell harvester followed by three ice-cold washes onto polyethyleneimine-pretreated (0.3%) Whatman GF/C filters. Filters were dried overnight and then soaked in Ecoscint, a liquid scintillation cocktail (National Diagnostics; Atlanta, Ga.). Bound radioactivity was quantified by liquid scintillation counting. Membrane protein concentrations were determined using an assay kit from Bio-Rad (Hercules, Calif.) with bovine serum albumin as the standard.

[2] = biological target: T2, GABAA/α1 (α1β3γ2 GABAA receptors) (Homo sapiens, UniProt P14867+P18507); test: Competitive binding assay, [3H]flunitrazepam; conditions: Binding Affinity at GABAA/α1, αxβ3γ2, [3H]flunitrazepam competition
T2 construct: expressed in transfected cells
Procedure: as §1

[3] = biological target: T3, GABAA/α3 (α3β3γ2 GABAA receptors) (Homo sapiens, UniProt P18507+P34903); test: Competitive binding assay, [3H]flunitrazepam; conditions: Binding Affinity at GABAA/α3, αxβ3γ2, [3H]flunitrazepam competition
T3 construct: expressed in transfected cells
Procedure: as §1

[4] = biological target: T4, GABAA/α5 (α5β3γ2 GABAA receptors) (Homo sapiens, UniProt P18507+P31644); test: Competitive binding assay, [3H]flunitrazepam; conditions: Binding Affinity at GABAA/α5, αxβ3γ2, [3H]flunitrazepam competition
T4 construct: expressed in transfected cells
Procedure: as §1

[5] = Plasma levels by LC-MS/MS (tolerance study); type: in vivo, Sprague Dawley rats
Procedure: Immediately after testing, blood was collected via cardiac puncture. Samples were spun down, plasma was collected and acetonitrile added. Samples were frozen at −80° C. and shipped to a commercial laboratory (Enthalpy) for analysis.
Group 3 (8 subjects) was dosed with vehicle only.

[6] = biological target: T5, GABAA/α6 (α6β3γ2 GABAA receptors) (Homo sapiens, UniProt P18507+Q16445); test: Competitive binding assay, [3H]flunitrazepam
T5 construct: expressed in transfected cells
Procedure: as §1

[7] = tested on: 6 Hz psychomotor seizure; test: Minimal clonic seizure (6 Hz) test; type: in vivo; conditions: Mice IP, 44 mA, 0.5 Hr
Source text: Like the maximal electroshock (MES) test, the minimal clonic seizure (6 Hz) test is used to assess a compound's efficacy against electrically-induced seizures but uses a lower frequency (6 Hz) and longer duration of stimulation (3 s). Test compounds are pre-administered to mice via ip injection. […] Untreated mice will display seizures characterized by a minimal clonic phase followed by stereotyped, automatistic behaviors described originally as being similar to the aura of human subjects with partial seizures. Animals not displaying this behavior are considered protected (Table 10).

[8] = tested on: Metrazol-induced clonic seizures; test: Subcutaneous Metrazol test (scMet), mice; type: in vivo
Procedure: (§2) The benzodiazepine derivative compounds selective for GABAa receptor subunits were tested for the ability to suppress seizures in several standard rat and mouse models of epilepsy. […] The standard models incorporated into anticonvulsant screening include the maximal electroshock test (MES), the subcutaneous Metrazol test (scMet), and evaluations of toxicity (TOX). The data for each condition is presented as a ratio of either the number of animals protected or toxic (loss of locomotor activity) over the number of animals tested at a given time point and dose.
(§3) Subcutaneous injection of the convulsant Metrazol produces clonic seizures in laboratory animals. […] Animals are pretreated with various doses of the test compound (in a similar manner to the MES test, although a dose of 50 mg/kg (po) is the standard for Test 2 scMet). At the previously determined TPE of the test compound, the dose of Metrazol which will induce convulsions in 97% of animals (CD97: 85 mg/kg mice) is injected into a loose fold of skin in the midline of the neck. […] An episode of clonic spasms, approximately 3-5 seconds, of the fore and/or hindlimbs, jaws, or vibrissae is taken as the endpoint.

[9] = tested on: MES-induced seizures; test: Maximal electroshock test (MES), mice; type: in vivo; conditions: Mice IP
Procedure: as §2
(§4) The MES is a model for generalized tonic-clonic seizures and provides an indication of a compound's ability to prevent seizure spread when all neuronal circuits in the brain are maximally active. These seizures are highly reproducible and are electrophysiologically consistent with human seizures. For all tests based on MES convulsions, 60 Hz of alternating current (50 mA in mice, 150 in rats) is delivered for by corneal electrodes which have been primed with an electrolyte solution containing an anesthetic agent (0.5% tetracaine HCL). For Test 1, mice are tested at various intervals following doses of 30, 100 and 300 mg/kg of test compound given by ip injection of a volume of 0.01 mL/g. In Test 2, rats are tested after a dose of 30 mg/kg (po) in a volume of 0.04 mL/g. Test 8 uses varying doses administered via i.p. injection, again in a volume of 0.04 ml/g. […] In Antiepileptic Drugs, Levy, R. H. M., Meldrum, B. S., Eds.; Raven Press: New York, pp 99-110, 1995b.).

[10] = tested on: MES-induced seizures; test: Maximal electroshock test (MES), rats; type: in vivo; conditions: Rat PO, 50 mg/kg
Procedure: as §2, §4

[11] = tested on: minimal muscular or neurological impairment; test: Toxicity (TOX), rotorod procedure, mice; type: in vivo
Procedure: as §2
(§5) To assess a compound's undesirable side effects (toxicity), animals are monitored for overt signs of impaired neurological or muscular function. […] When a mouse is placed on a rod that rotates at a speed of 6 rpm, the animal can maintain its equilibrium for long periods of time. The animal is considered toxic if it falls off this rotating rod three times during a 1-min period. In rats, minimal motor deficit is indicated by ataxia, which is manifested by an abnormal, uncoordinated gait. Rats used for evaluating toxicity are examined before the test drug is administered, since individual animals may have peculiarities in gait, equilibrium, placing response, etc., which might be attributed erroneously to the test substance.

[12] = tested on: minimal motor deficit (ataxia, abnormal gait); test: Toxicity (TOX), minimal motor deficit, rats; type: in vivo; conditions: for Tox, animals toxic/tested: Rat PO, 50 mg/kg; for TOX (Rotorod Test), animals toxic/tested: Rat IP, 100 mg/kg
Procedure: as §2, §5

[13] = tested on: Metrazol-induced clonic seizures; test: Subcutaneous Metrazol test (scMet), rats; type: in vivo
Procedure: as §2, §3

[14] = Mice, 50 mg/kg PO (Mice IP), 0.5 hr
[15] = Mice, 50 mg/kg PO (Mice IP), 4.0 hr

O=C(OCC(F)(F)F)c1ncn2c1CN=C(c1ccccc1)c1cc(Br)ccc1-2
melting point: 202 to 204 °C

O=C(OCC(Cl)(Cl)Cl)c1ncn2c1CN=C(c1ccccc1)c1cc(Br)ccc1-2
melting point: 113 to 116 °C

C[Si](C)(C)C#Cc1ccc2c(c1)C(c1ccccc1)=NCc1c(C(=O)OCC(F)(F)F)ncn1-2
melting point: 107 to 110 °C

C#Cc1ccc2c(c1)C(c1ccccc1)=NCc1c(C(=O)OCC(F)(F)F)ncn1-2 [DM-II-20, Trifluoroethyl 8-acetylenyl-6-phenyl-4H-benzo[f]imidazo[1,5-a][1,4]diaze-pine-3-carboxylate]
melting point: 188 to 190 °C | Ki [1]: 177 nM | Ki [2]: 5720 nM | Ki [3]: 35.7 nM | Ki [4]: 198 nM

C#Cc1ccc2c(c1)C(c1ccccn1)=NCc1c(C(=O)O)ncn1-2 [HZ-166 acid]
HZ-166 acid, plasma average with outliers excluded ([5]; Group 1 (five days dosing of HZ-166)): 9.03 nmol/mL | Conc HZ-166 acid in plasma, individual subjects ([5]; Group 1: HZ-166 35.5 mg/kg ip for five days, blood after test on day 5): 2910 ng/mL and 2570 ng/mL and 3430 ng/mL and 2830 ng/mL and BLQ < (1.00) ng/mL and 3780 ng/mL and 3310 ng/mL and 1900 ng/mL | HZ-166 acid, plasma average with outliers excluded ([5]; Group 2 (HZ-166 on day 5 only)): 8.72 nmol/mL | Conc HZ-166 acid in plasma, individual subjects ([5]; Group 2: HZ-166 35.5 mg/kg ip on day 5 only): 3270 ng/mL and 2180 ng/mL and 167 ng/mL and 3120 ng/mL and 3100 ng/mL and 3690 ng/mL and 2590 ng/mL and 2080 ng/mL

O=C(OCC(F)(F)F)c1ncn2c1CN=C(c1ccccc1F)c1cc(Br)ccc1-2 [JYI-49, Trifluoroethyl-8-bromo-6-(2′-fluorophenyl)-4H-benzo[f]imidazo[1,5-a][1,4]diazepine-3-carboxylate]
Ki [1]: 2.38 nM | Ki [2]: 1.87 nM | Ki [6]: 3390 nM | Ki [4]: 6.7 nM

C#Cc1ccc2c(c1)C(c1ccccc1)=N[C@@H](C)c1nnc(C)n1-2 [SH-TS-CH3 (143), (4S)-8-Ethynyl-1,4-dimethyl-6-phenyl-4H-benzo[f][1,2,4]triazolo[4,3-a][1,4]diazepine]
6 Hz ED50 Biological Response, protected/tested ([7]; 3 mg/kg): 4/8 | 6 Hz ED50 Biological Response, protected/tested ([7]; 6 mg/kg): 5/8 | 6 Hz ED50 Biological Response, protected/tested ([7]; 10 mg/kg): 8/8 | ED50 ([7]; Mus musculus, ip, 0.5 h, read-out: ED50 (6 Hz)): 3.98 mg/kg | scMet, animals protected/tested ([8]; Mice IP, 3 mg/kg, 0.5 Hr): 2/4 | scMet, animals protected/tested ([8]; Mice IP, 10 mg/kg, 0.5 Hr): 4/4 | scMet, animals protected/tested ([8]; Mice IP, 30 mg/kg, 0.5 Hr): 1/1 | scMet, animals protected/tested ([8]; Mice IP, 30 mg/kg, 4.0 Hr): 0/1 | scMet, animals protected/tested ([8]; Mice IP, 100 mg/kg, 0.5 hr): 1/1 | scMet, animals protected/tested ([8]; Mice IP, 100 mg/kg, 4.0 hr): 1/1 | scMet, animals protected/tested ([8]; Mice IP, 300 mg/kg, 0.5 Hr): 1/1 | scMet, animals protected/tested ([8]; Mice IP, 300 mg/kg, 4.0 Hr): 1/1 | MES, animals protected/tested ([9]; 3 mg/kg, 0.5 Hr): 0/4 | MES, animals protected/tested ([9]; 10 mg/kg, 0.5 Hr): 0/4 | MES, animals protected/tested ([9]; 30 mg/kg, 0.5 Hr): 1/1 | MES, animals protected/tested ([9]; 30 mg/kg, 4.0 Hr): 0/1 | MES, animals protected/tested ([9]; 100 mg/kg, 0.5 hr): 3/3 | MES, animals protected/tested ([9]; 100 mg/kg, 4.0 hr): 0/3 | MES, animals protected/tested ([9]; 300 mg/kg, 0.5 Hr): 1/1 | MES, animals protected/tested ([9]; 300 mg/kg, 4.0 Hr): 1/1 | Ki [1]: 50.1 nM | Ki [2]: 107 nM | Ki [4]: 8.1 nM | MES, animals protected/tested ([10]; 0.5 h): 0/4 | MES, animals protected/tested ([10]; 1.0 h): 0/4 | MES, animals protected/tested ([10]; 2.0 h): 0/4 | MES, animals protected/tested ([10]; 4.0 h): 0/4 | MES, animals protected/tested ([10]; […]): 0/4 | TOX (Rotorod Test), animals toxic/tested ([11]; Mice IP, 3 mg/kg, 0.5 Hr): 0/8 | TOX (Rotorod Test), animals toxic/tested ([11]; Mice IP, 10 mg/kg, 0.5 Hr): 5/8^14 | TOX (Rotorod Test), animals toxic/tested ([11]; Mice IP, 30 mg/kg, 0.5 Hr): 4/4^14 | TOX (Rotorod Test), animals toxic/tested ([11]; Mice IP, 30 mg/kg, 4.0 Hr): 0/2 | TOX (Rotorod Test), animals toxic/tested ([11]; Mice IP, 100 mg/kg, 0.5 hr): 8/8^14 | TOX (Rotorod Test), animals toxic/tested ([11]; Mice IP, 100 mg/kg, 4.0 hr): 0/4 | TOX (Rotorod Test), animals toxic/tested ([11]; Mice IP, 300 mg/kg, 0.5 Hr): 4/4^13 | TOX (Rotorod Test), animals toxic/tested ([11]; Mice IP, 300 mg/kg, 4.0 Hr): 2/2^14 | Tox, animals toxic/tested ([12]; 0.5 h): 0/4 | Tox, animals toxic/tested ([12]; 1.0 h): 0/4 | Tox, animals toxic/tested ([12]; 2.0 h): 0/4 | Tox, animals toxic/tested ([12]; 4.0 h): 0/4 | Tox, animals toxic/tested ([12]; […]): 0/4 | scMet, animals protected/tested ([13]; Rat PO, 50 mg/kg, 0.5 h): 1/4 | scMet, animals protected/tested ([13]; Rat PO, 50 mg/kg, 1.0 h): 0/4^5 | scMet, animals protected/tested ([13]; Rat PO, 50 mg/kg, 2.0 h): 2/4^25 | scMet, animals protected/tested ([13]; Rat PO, 50 mg/kg, 4.0 h): 0/4^5 | scMet, animals protected/tested ([13]; Rat PO, 50 mg/kg, […]): 0/4^5

C#Cc1ccc2c(c1)C(c1ccccc1)=NCc1c(C(=O)OCC)ncn1-2 [XHe-II-053 (7), Ethyl 8-acetylenyl-6-phenyl-4H-benzo[f]imidazo[1,5-a][1,4]diazepine-3-carboxylate]
scMet, animals protected/tested ([8]; Mice IP, 100 mg/kg, 0.5 hr): 0/1 | scMet, animals protected/tested ([8]; Mice IP, 100 mg/kg, 4.0 hr): 0/1 | scMet, animals protected/tested [8, 14]: 1/4 | scMet, animals protected/tested [8, 15]: 0/4 | MES, animals protected/tested ([9]; 100 mg/kg, 0.5 hr): 0/3 | MES, animals protected/tested ([9]; 100 mg/kg, 4.0 hr): 0/3 | TOX (Rotorod Test), animals toxic/tested ([11]; Mice IP, 100 mg/kg, 0.5 hr): 0/8 | TOX (Rotorod Test), animals toxic/tested ([11]; Mice IP, 100 mg/kg, 4.0 hr): 0/4 | TOX (Rotorod Test), animals toxic/tested [11, 14]: 2/4 | TOX (Rotorod Test), animals toxic/tested [11, 15]: 0/4 | TOX (Rotorod Test), animals toxic/tested ([12]; 0.5 hr): 2/4 | TOX (Rotorod Test), animals toxic/tested ([12]; 4.0 hr): 0/4 | scMet, animals protected/tested ([13]; Rat IP, 100 mg/kg, 0.5 hr): 1/4 | scMet, animals protected/tested ([13]; Rat IP, 100 mg/kg, 4.0 hr): 0/4
